Assay results reported in patent EP1513800B1, “N-BENZOYLUREIDOCINNAMATE DERIVATIVES, METHOD FOR PRODUCTION AND USE THEREOF” (Sanofi-Aventis Deutschland GmbH, priority 2002, dated 2003).

Tested on: Humane Glykogenphosphorylase a
Experiment: Glycogen phosphorylase a activity test (reverse direction, release of inorganic phosphate from glucose-1-phosphate)
Assay type: biochemical
Details: 10 µM test substance; in vitro; 40 min at room temperature; absorbance at 820 nm; duplicate determinations
Protocol: Glykogenphosphorylase a Aktivitätstest
Der Effekt von Verbindungen auf die Aktivität der aktiven Form der Glykogenphosphorylase (GPa) wurde in der umgekehrten Richtung, durch Verfolgen der Glykogensynthese aus Glukose-1-Phosphat an Hand der Bestimmung der Freisetzung von anorganischem Phosphat, gemessen. […] Prüfsubstanzen wurden als 10 mM Lösung in DMSO zubereitet und auf 50 µM mit Pufferlösung T verdünnt. Zu 10 µl dieser Lösung wurden 10 µl 37,5 mM Glukose, gelöst in Pufferlösung T und 5 mg/mL Glykogen, sowie 10 µl einer Lösung von humaner Glykogenphosphorylase a (10 µg Protein/ml) und 20 µl Glukose-1-Phosphat, 2,5 mM zugegeben. Der basale Wert der Glykogenphosphorylase a Aktivität in Abwesenheit von Prüfsubstanz wurde durch Zugabe von 10 µl Pufferlösung T (0,1 % DMSO) bestimmt. […] Zur Bestimmung der Hintergrundsabsorption wurde in einem separaten Ansatz die Stop-Lösung unmittelbar nach Zugabe der Glukose-1-Phosphatlösung zugegeben. Dieser Test wurde mit einer Konzentrationen von 10 µM der Prüfsubstanz durchgeführt, um die jeweilige Hemmung der Glykogenphosphorylase a in vitro durch die Prüfsubstanz zu bestimmen. Tabelle 2: Biologische Aktivität

| % Inhibition bei 10 µM [%] | SMILES |
| --- | --- |
| 101 | O=C(O)/C=C/c1ccccc1NC(=O)NC(=O)c1cc(F)c(F)cc1Cl [compound 2, 3-{2-[3-(2-Chloro-4,5-difluorobenzoyl)-ureido]-phenyl}-acrylsäure] |
| 104 | COC(=O)C=Cc1cc(C(=O)O)ccc1NC(=O)NC(=O)c1cc(F)c(F)cc1Cl [compound 12, 4-[3-(2-Chloro-4,5-difluorobenzoyl)-ureido]-3-(2-methoxycarbonyl-vinyl)-benzoesäure] |
